Source: ChEMBL document CHEMBL1145554, “First CoMFA characterization of vesamicol analogs as ligands for the vesicular acetylcholine transporter” (J Med Chem, 2008)

Assay: Displacement of [3H]vesamicol from VAChT receptor in torpedo electrical organ synaptic vesicle

Structure (SMILES) | Ki [nM]
O[C@@H]1C[C@H]2CCCC[C@@H]2C[C@H]1N1CCC(c2ccccc2)CC1 | 0.009
O=C(CN1C2CCC1CC(c1ccccc1)C2)c1ccc(F)cc1 (stereo not drawn) | 3400
O[C@@H]1CCCC[C@H]1N1CCC(c2ccccc2)CC1 (relative stereo) [VESAMICOL] | 7.6
